The source of these data is patent US7351732B2, “Cycloalkanedione derivatives, method for the production thereof and their pharmacological applications” (Schwarz Pharma S.L., priority 2002, dated 2008).

SMILES strings stand for the structures. A value given as a limit tells only on which side of the number the result lay.

In test [1] the target is T1, 5-HT2A receptors (Rattus norvegicus, UniProt P14842).
T1 construct: (b) 5-HT2A receptors, [^3H]ketanserin, rat cerebral cortex; from tissue; host or cells: rat cerebral cortex
T1 sequence (P14842 whole entry): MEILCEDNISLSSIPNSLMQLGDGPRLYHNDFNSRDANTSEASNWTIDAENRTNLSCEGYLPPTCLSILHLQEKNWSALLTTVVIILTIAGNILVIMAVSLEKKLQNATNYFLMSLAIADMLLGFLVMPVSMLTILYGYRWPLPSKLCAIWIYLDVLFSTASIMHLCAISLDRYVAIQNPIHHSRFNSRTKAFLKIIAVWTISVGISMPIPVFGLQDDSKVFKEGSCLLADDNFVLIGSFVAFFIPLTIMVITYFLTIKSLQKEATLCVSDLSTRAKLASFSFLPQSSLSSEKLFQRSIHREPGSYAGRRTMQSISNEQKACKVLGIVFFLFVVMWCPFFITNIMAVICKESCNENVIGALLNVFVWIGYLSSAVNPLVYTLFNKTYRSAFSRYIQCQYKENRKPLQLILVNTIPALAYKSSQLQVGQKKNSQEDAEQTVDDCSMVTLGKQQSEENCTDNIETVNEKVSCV
Briefly: Radioligand displacement, 5-HT2A receptors, [3H]ketanserin. It counts as binding. The following applies: rat cerebral cortex, read-out: Ki ± E.E. 5-HT2A.

For test [2], the target named is T2, 5-HT3 receptors (Rattus norvegicus, UniProt P35563).
T2 construct: (c) 5-HT3 receptors, [^3H]LY 278584, rat cerebral cortex; from tissue; host or cells: rat cerebral cortex
T2 sequence (P35563 24-483): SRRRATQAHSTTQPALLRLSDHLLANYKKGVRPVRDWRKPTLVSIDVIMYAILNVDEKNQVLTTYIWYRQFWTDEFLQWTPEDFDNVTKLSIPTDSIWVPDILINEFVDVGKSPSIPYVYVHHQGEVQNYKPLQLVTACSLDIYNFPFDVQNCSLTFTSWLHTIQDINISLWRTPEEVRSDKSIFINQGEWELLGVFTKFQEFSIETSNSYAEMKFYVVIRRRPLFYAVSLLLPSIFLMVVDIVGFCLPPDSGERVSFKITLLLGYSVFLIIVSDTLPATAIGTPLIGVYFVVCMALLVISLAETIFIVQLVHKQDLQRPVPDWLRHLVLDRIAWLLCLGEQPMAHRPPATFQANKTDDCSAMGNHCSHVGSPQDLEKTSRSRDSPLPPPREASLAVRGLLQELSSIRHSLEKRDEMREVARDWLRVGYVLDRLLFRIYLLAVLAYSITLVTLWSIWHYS
Briefly: Radioligand displacement, 5-HT3 receptors, [3H]LY 278584. It counts as binding. The conditions noted are these: [3H]LY 278584, rat cerebral cortex; read-out: Ki ± E.E. 5-HT3.

For test [3], the system named is primary cultures of rat hippocampus. Briefly: Apoptotic neuronal death induced by serum deprivation. The following applies: 24 hours without serum; compared with compound no. 1.
Procedure: The neuroprotective effect of the compounds considered was studied in experimental models in vitro, using primary cultures of rat hippocampus exposed to serum deprivation, to a toxic concentration of glutamate, or incubated in conditions of hypoxia and absence of glucose.
For test [4], the target named is T3, 5-HT4 receptors (Rattus norvegicus, UniProt Q62758).
T3 construct: (d) 5-HT4 receptors, [^3H]GR 113808, rat striatum; from tissue; host or cells: rat striatum
T3 sequence (Q62758 whole entry): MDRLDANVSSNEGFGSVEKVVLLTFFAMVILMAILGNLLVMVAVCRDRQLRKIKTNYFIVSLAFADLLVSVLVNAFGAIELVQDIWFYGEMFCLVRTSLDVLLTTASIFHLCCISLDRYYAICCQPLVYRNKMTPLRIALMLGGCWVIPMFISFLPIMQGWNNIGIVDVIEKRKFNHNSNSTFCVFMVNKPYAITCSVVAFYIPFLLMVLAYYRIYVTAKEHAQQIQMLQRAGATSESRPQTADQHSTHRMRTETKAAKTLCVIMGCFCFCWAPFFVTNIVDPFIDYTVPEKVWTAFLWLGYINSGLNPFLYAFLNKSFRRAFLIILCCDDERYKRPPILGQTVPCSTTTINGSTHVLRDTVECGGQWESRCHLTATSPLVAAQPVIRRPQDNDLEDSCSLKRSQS
Briefly: Radioligand displacement, 5-HT4 receptors, [3H]GR 113808. The format is binding. The conditions noted are these: [3H]GR 113808, rat striatum; read-out: Ki ± E.E. 5-HT4.

Test [5] addresses α1 receptors. The test is described as follows: Radioligand displacement, α1 receptors, [3H]prazosin. The format is binding. The following applies: rat cerebral cortex, read-out: Ki ± E.E. α1.
For test [6], the target named is T4, 5-human HT1A receptor (Homo sapiens, UniProt P08908).
T4 construct: expressed in transfected cells; host or cells: HeLa cells
T4 sequence (P08908 1-422): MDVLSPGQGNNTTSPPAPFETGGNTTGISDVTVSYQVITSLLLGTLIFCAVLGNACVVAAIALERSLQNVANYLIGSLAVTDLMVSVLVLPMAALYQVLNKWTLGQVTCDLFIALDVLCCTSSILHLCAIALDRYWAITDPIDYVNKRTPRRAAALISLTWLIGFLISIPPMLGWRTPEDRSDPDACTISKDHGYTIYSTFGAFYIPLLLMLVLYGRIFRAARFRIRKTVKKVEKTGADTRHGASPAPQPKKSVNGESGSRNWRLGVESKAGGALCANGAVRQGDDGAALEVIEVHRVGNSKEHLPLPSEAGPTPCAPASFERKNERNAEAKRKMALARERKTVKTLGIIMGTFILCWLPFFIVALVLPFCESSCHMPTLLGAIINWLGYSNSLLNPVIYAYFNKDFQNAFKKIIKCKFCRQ
Briefly: Test on adenylate cyclase in He-La cells (inhibition of forskolin stimulation). The format is cell-based. The text has this:
The functional character of the new compounds was initially determined by studying their effect on adenylate cyclase in He—La cells transfected with the […], measuring their inhibiting effect on the stimulation of the enzyme induced by forskolin (Table 3 below).

Test [7] has as its target T5, 5-HT7 receptors (Rattus norvegicus, UniProt P32305).
T5 construct: (e) 5-HT7 receptors, [^3H]-5-CT, rat hypothalamus; from tissue; host or cells: rat hypothalamus
The test is described as follows: Radioligand displacement, 5-HT7 receptors, [3H]-5-CT. It counts as binding. The conditions noted are these: [3H]-5-CT, rat hypothalamus; read-out: Ki ± E.E. 5-HT7.

In test [8] the test system is hippocampal area CA1. Briefly: Transient global ischemia model in gerbils. The format is in vivo. The conditions noted are these: gerbil, 1-5 mg/kg s.c., 30 min before and 24 and 48 h after ischemia. The text has this: In the transient ischemia model in gerbils induced by temporary occlusion of both carotid arteries, the delivery of compounds no.
In test [9] the target is T6, D2 receptors (Rattus norvegicus, UniProt P61169).
T6 construct: (g) D2 receptors, [^3H]spiperone, rat striatum; from tissue; host or cells: rat striatum
T6 sequence (P61169 whole entry): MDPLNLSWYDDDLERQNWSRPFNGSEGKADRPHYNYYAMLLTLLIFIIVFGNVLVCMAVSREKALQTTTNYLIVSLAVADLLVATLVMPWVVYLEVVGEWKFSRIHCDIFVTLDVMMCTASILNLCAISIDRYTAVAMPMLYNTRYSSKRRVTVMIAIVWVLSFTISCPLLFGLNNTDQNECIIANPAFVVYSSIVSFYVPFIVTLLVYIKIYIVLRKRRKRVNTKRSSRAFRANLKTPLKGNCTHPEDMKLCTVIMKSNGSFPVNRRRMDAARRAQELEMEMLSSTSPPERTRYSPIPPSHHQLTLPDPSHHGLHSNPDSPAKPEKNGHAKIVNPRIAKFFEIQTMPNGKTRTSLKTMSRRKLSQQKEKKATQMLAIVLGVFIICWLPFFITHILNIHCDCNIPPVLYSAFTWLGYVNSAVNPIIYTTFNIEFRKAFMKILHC
The test is described as follows: Radioligand displacement, D2 receptors, [3H]spiperone. It counts as binding. The following applies: rat striatum, read-out: Ki ± E.E. D2.

Test [10] addresses T7, 5-HT1A (Rattus norvegicus, UniProt P19327).
T7 sequence (P19327 1-422): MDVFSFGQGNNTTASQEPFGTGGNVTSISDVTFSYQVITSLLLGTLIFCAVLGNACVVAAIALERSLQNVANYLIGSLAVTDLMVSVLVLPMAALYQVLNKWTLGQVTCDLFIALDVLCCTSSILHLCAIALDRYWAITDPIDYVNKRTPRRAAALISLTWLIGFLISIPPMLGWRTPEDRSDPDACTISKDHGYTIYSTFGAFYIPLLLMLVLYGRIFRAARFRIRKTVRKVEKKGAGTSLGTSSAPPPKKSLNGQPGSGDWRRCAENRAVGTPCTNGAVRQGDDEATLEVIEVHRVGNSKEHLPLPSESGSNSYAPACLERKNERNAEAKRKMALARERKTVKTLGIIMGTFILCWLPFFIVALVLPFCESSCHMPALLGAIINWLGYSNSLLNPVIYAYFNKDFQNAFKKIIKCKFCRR
The test is described as follows: Radioligand displacement, 5-HT1A receptors, [3H]-8-OH-DPAT. The format is binding. Also noted: (a) 5-HT1A receptors, [^3H]-8-OH-DPAT, rat cerebral cortex; from tissue; host or cells: rat cerebral cortex. The following applies: rat cerebral cortex, read-out: Ki ± E.E. 5-HT1A.

Test [11] concerns 5-HT1A. Briefly: Mouse hypothermia test. It counts as in vivo. The text has this: All compounds previously characterized in vitro as 5-HT1A agonists (Table 3) were delivered by subcutaneous injection to mice in order to quantify the hypothermia associated to stimulation of this serotonergic receptor subtype.

T5 sequence (P32305 whole entry): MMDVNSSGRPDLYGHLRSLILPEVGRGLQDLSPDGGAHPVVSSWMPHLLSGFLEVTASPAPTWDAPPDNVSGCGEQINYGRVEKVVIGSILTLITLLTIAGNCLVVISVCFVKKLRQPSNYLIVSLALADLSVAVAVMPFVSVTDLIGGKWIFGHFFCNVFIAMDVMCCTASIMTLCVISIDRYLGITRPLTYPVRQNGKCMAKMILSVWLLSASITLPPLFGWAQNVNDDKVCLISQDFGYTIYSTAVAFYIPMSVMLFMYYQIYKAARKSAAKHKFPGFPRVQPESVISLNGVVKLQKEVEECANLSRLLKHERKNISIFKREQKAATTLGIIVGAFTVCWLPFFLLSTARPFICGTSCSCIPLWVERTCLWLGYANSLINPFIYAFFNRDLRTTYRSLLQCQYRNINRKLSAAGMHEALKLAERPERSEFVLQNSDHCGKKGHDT

In the case of `O=C1C2CCCN2C(=O)N1CCCCNCCOc1ccccc1` (stereo not shown) [Compound 12, 2-[4-[2-(Phenoxy)ethylamine]butyl]-1,3-dioxoperhydropyrrolo[1,2-c]imidazol], the inhibitory constant (Ki) in test [1] is > 10000 nM; in test [2] it was > 1000 nM; in test [4], > 10000 nM; in test [5], > 1000 nM; in test [7], > 1000 nM; in test [9], > 1000 nM. Also, the Ki in [10] is 25.5 ± 0.9 nM. Further, in test [3], the “Neuroprotective effect in serum deprivation” value is listed as “the degree of protection was somewhat below”. Further, the EC50 in test [6] (inhibition of forskolin-stimulated adenylate cyclase, He-La cells transfected with 5-HT1A, read-out: CE50 (the source's name)) was 76.2 nM. Moreover, the “% Maximum inhibition” value in [6] (inhibition of the activation induced by forskolin) was 87.4%. Moreover, the “Prevention of ischemic injury in hippocampal area CA1 (Nissl stain)” value in [8] was “significantly prevented the injury”. In addition, the Minimum effective dosage in [11] (subcutaneous injection, rectal temperature) came to 2.5 mg/kg. In test [11] (subcutaneous, at minimum effective dose), this molecule had a Hypothermic effect of 1.4 °C.
